Data taken from patent publication US9504676B2, “Molecules inhibiting a metabolic pathway involving the Syk protein tyrosine kinase and method for identifying said molecules” (CENTRE NATIONAL DE LA RECHERCHE SCIENTIFIQUE, priority 2008, dated 2016).

What was measured:
BALB/c mice = test: Peritonitis: Syk-dependent peritoneal neutrophil recruitment; assay type: in vivo; details: single oral administration of 100 mg/kg, Bordetella pertussis toxin
Btk = test: Phosphorylation and FcεRI-induced kinase activity of Btk in RBL-2H3 cells; assay type: cell-based, rat
Description: To examine the functional similarities with G4G11, the inventors explored the biological effects of C-13 on mast cell activation. […] Similarly to the intrabody G4G11, C-13 inhibited the phosphorylation and FcεRI-induced kinase activity of Btk (FIG. 2A) and the phosphorylation of PLC-γ1 and PLC-γ2, the two PLC-γ isoforms expressed in mast cells (FIGS. 2A, C). PTK Lyn phosphorylates both Syk and Btk giving rise to the complete activation thereof and the subsequent phosphorylation of PLC-γ^18.
• 1) Chemical products and antibodies. A chemical bank of 3000 molecules (a varied subset) was acquired from ChemBridge, Inc. (San Diego, Calif.). Stocks of solutions of small molecules were prepared at a rate of 10 mM in DMSO (dimethylsulphoxide), except for C-13 (methyl 2-{5-[(3-benzyl-4-oxo-2-thioxo-1,3-thiazolidin-5-ylidene)methyl]-2-furyl}benzoate, ChemBridge ID No. 6197026) prepared in DMF (dimethylformamide). […] The binding of G4G11 with Syk was assessed by adding the 9E10 monoclonal antibody conjugated with HRP detecting the amino acid sequence EQKLISEEDLN of human c-myc protein located at the C-terminal end of the scFv fragment. To generate Syk mutants, targeted mutagenesis was used on GST:Syk 6-242 protein and the binding of G4G11 with the mutants was assessed in the presence of 5 μM of C-13. • 3) Cells, culture conditions and functional tests. […]

RBL-2H3 cells = test: FACS analysis of IgE-dependent calcium flow; assay type: cell-based, rat; details: mast cells
Procedure: FIG. 3. C-13 inhibits FcεRI-dependent calcium release and degranulation. A. FACS analysis of IgE-dependent calcium flow in RBL-2H3 cells. B. Release of β-hexosaminidase in RBL-2H3 cells sensitised with IgE/DNP. C. Release of β-hexosamlnidase and, D. titration of TNF-α in BMMCs cells sensitised with IgE/DNP; C-13: 3 μM. E. FACS analysis of FCεRI surface expression in RBL-2H3 cells. (0=0.25% DMF). Significant inhibition with C-13 versus DMF: **P<0.01 and *P<0.05.
Binding of Btk and Vav with SLP-76 is critical for regulating PLC-γ activity on the membrane, calcium mobilisation and granule exocytosis^27, 28.
• 1) Chemical products and antibodies. A chemical bank of 3000 molecules (a varied subset) was acquired from ChemBridge, Inc. (San Diego, Calif.). […] The binding of G4G11 with Syk was assessed by adding the 9E10 monoclonal antibody conjugated with HRP detecting the amino acid sequence EQKLISEEDLN of human c-myc protein located at the C-terminal end of the scFv fragment. To generate Syk mutants, targeted mutagenesis was used on GST:Syk 6-242 protein and the binding of G4G11 with the mutants was assessed in the presence of 5 μM of C-13. • 3) Cells, culture conditions and functional tests. […]

## COC(=O)c1ccccc1-c1ccc(/C=C2/SC(=S)N(Cc3ccccc3)C2=O)o1 [Molecule C-13, methyl 2-{5-[(3-benzyl-4-oxo-2-thioxo-1,3-thiazolidin-5-ylidene)methyl]-2-furyl}benzoate]
BALB/c mice
  Syk-dependent neutrophil recruitment induced by thioglycollate in the peritoneal cavity: did not affect
Btk
  phosphorylation and FcεRI-induced kinase activity of Btk: inhibited
RBL-2H3 cells
  calcium flow in response to FcεRI binding: reduced calcium flow range
